Laboratory results published in paper PMC5057115, “Cathelicidins in the Tasmanian devil (Sarcophilus harrisii)” (Scientific Reports, 2016).
Where no end group is shown, it is not given here.

Assays:
E. faecalis ATCC 29212 = test: microbe, parasite or virus in culture; type: cell-based, Enterococcus faecalis; details: ATCC 29212, 24 h
Experimental: (§1) Tissue expression of devil cathelicidin prepropeptides was determined by real-time PCR on a range of secretory, immune, reproductive, gastrointestinal and respiratory tissues, as well as BLAST searches of the milk transcriptome. Opportunistic tissue samples for real-time PCR were collected from Taronga Zoo (Sydney) from devils which were subject to euthanasia due to old age and advanced disease. The mature peptides of all six devil cathelicidins were synthesised by ChinaPeptides Co. Ltd. and their antimicrobial activity against bacterial and fungal pathogens determined by broth microdilution susceptibility assay according to clinical laboratory standards institute guidelines. Antimicrobial activity was expressed as minimum inhibitory concentration (MIC). Cytotoxicity was assessed in the human cell line A549 and haemolytic activity determined against human blood. Statistical significance of peptide effect on cell survival in comparison to the untreated control was calculated using a one sample t-test. Pouch microbiome analysis was performed on swabs from the pouch of lactating and non-lactating devils to detect changes in microbe populations. Pouch swab collection was carried out in accordance with the Save the Tasmanian Devil Program and was approved by the Animal Ethics Committee of the University of Sydney (permit number 681). […]
(§2) base (YNB) for fungi, from a concentration of 64μg/mL to 0.125μg/mL in a final volume of 100 μL .
(§3) Two antibiotics, ampicillin and tetracycline, were included as a positive control for bacteria, and the antifungal drug fluconazole for fungi. A well containing cells and media only was used as a “no drug” control to ensure that cultures grew normally. Bacteria were subcultured on Mueller Hinton agar (MHA) or Sheep blood agar (BA) for 24 hours at 35 °C for Staphylococcus spp., Pseudomonas spp., Enterococcus spp. and E.coli, with 5% CO2 for Streptococcus spp., K.pneumoniae, P.multocida, L.monocytogenes and N.asteroides. Similarly, fungi were subcultured on Sabouraud agar (SAB) at 35 °C for 24 hours prior to the test. Colonies were resuspended in saline and the OD530 measured with a McFarland reader. If necessary the suspension was diluted to 0.45-0.55 McFarland units with saline. […] Assays Antimicrobial activity was expressed as minimum inhibitory concentration (MIC), which was defined as the lowest concentration of cathelicidin preventing visible growth, relative to the negative control. […]
(§4) 570nm and 620nm using the Victor 3 multilabel plate reader (PerkinElmer). […] To x i city of cathelicidins was calculated according to Invitrogen recommendations and expressed as percentage cell survival compared to the untreated growth control. […]
(§5) Haemolytic activity was assessed using 10mL of human blood collected into potassium -ED T A vacutainers (BD). […]

E. coli = type: cell-based, Escherichia coli; details: broth microdilution (CLSI), 64 to 0.125 μg/mL, 24 h at 35 °C; human clinical isolate
Experimental: as §1, with “t-test.” for “t-test. Pouch microbiome analysis was performed on swabs from the pouch of lactating and non-lactating devils to detect changes in microbe populations. Pouch swab collection was carried out in accordance with the Save the Tasmanian Devil Program and was approved by the Animal Ethics Committee of the University of Sydney (permit number 681).”
(§6) Two antibiotics, ampicillin and tetracycline, were included as a positive control for bacteria, and the antifungal drug fluconazole for fungi. […] Colonies were resuspended in saline and the OD530 measured with a McFarland reader. […] Assays Antimicrobial activity was expressed as minimum inhibitory concentration (MIC), which was defined as the lowest concentration of cathelicidin preventing visible growth, relative to the negative control. […]
(§7) DMEM and positive control of dimethylsulfoxide (DMSO) (1%) were also included. Following incubation for a further 24 hours, cell viability was determined using alamar blue (Invitrogen) which was added to each well. The plates were incubated for 24 hours, then the absorption measured at 570nm and 620nm using the Victor 3 multilabel plate reader (PerkinElmer). […] To x i city of cathelicidins was calculated according to Invitrogen recommendations and expressed as percentage cell survival compared to the untreated growth control. […]
(§8) Haemolytic activity was assessed using 10mL of human blood collected into potassium -ED T A […]

C. krusei ATCC 6258 = type: cell-based, Candida krusei; details: broth microdilution (CLSI), YNB, 64 to 0.125 μg/mL, 48 hours at 35 °C; ATCC strain
Experimental: as §1, with “t-test.” for “t-test. Pouch microbiome analysis was performed on swabs from the pouch of lactating and non-lactating devils to detect changes in microbe populations. Pouch swab collection was carried out in accordance with the Save the Tasmanian Devil Program and was approved by the Animal Ethics Committee of the University of Sydney (permit number 681).”
as §6, §7, §8

[1] = test system: Methicillin resistant S. aureus (MRSA); type: cell-based, Staphylococcus aureus; details: broth microdilution (CLSI), 64 to 0.125 μg/mL, 24 h at 35 °C, human clinical isolate
Experimental: as §1, §2
Two antibiotics, ampicillin and tetracycline, were included as a positive control for bacteria, and the antifungal drug fluconazole for fungi. A well containing cells and media only was used as a “no drug” control to ensure that cultures grew normally. […] Colonies were resuspended in saline and the OD530 measured with a McFarland reader. […] Assays Antimicrobial activity was expressed as minimum inhibitory concentration (MIC), which was defined as the lowest concentration of cathelicidin preventing visible growth, relative to the negative control. […]
as §7, §8

[2] = test system: C. parapsilosis ATCC 22019; test: microbe, parasite or virus in culture; type: cell-based; details: broth microdilution (CLSI), YNB, 64 to 0.125 μg/mL, 48 hours at 35 °C; ATCC strain
Experimental: as §1, §2
(§9) Two antibiotics, ampicillin and tetracycline, were included as a positive control for bacteria, and the antifungal drug fluconazole for fungi. A well containing cells and media only was used as a “no drug” control to ensure that cultures grew normally. Bacteria were subcultured on Mueller Hinton agar (MHA) or Sheep blood agar (BA) for 24 hours at 35 °C for Staphylococcus spp., Pseudomonas spp., Enterococcus spp. and E.coli, with 5% CO2 for Streptococcus spp., K.pneumoniae, P.multocida, L.monocytogenes and N.asteroides. Similarly, fungi were subcultured on Sabouraud agar (SAB) at 35 °C for 24 hours prior to the test. Colonies were resuspended in saline and the OD530 measured with a McFarland reader. If necessary the suspension was diluted to 0.45-0.55 McFarland units with saline. Following a 1:150 dilution for bacteria and twostep dilution for fungi (1:50, 1:20), 100 μL of microorganisms (1x106 – 5 x10^5 cells/mL) were pipetted into wells 2-12, the first well acting as a negative control. Colony counts were performed using a 1:1000 dilution for bacteria and 1:10 for fungi spread onto MHA/BA or SAB plates respectively. The 96 well microdilution and agar plates were incubated for 24 hours at 35 °C (Escherichia coli, Staphylococcus spp., Enterococcus spp. and Pseudomonas spp.), with 5% CO2 (Streptococcus spp. Pasteurella multocida, Klebsiella pneumoniae, Listeria monocytogenes a nd Nocardia asteroids) for bacteria, and 35 °C for 48 hours (Candida spp .) or 72 hours (Cryptococcus spp.) for fungi. Assays Antimicrobial activity was expressed as minimum inhibitory concentration (MIC), which was defined as the lowest concentration of cathelicidin preventing visible growth, relative to the negative control. […]
(§10) DMEM and positive control of dimethylsulfoxide (DMSO) (1%) were also included. […]
(§11) 570nm and 620nm using the Victor 3 multilabel plate reader (PerkinElmer). The assay was performed on two separate occasions. To x i city of cathelicidins was calculated according to Invitrogen recommendations and expressed as percentage cell survival compared to the untreated growth control. A significant difference between cathelicidin treated and control cell survival was tested using a o ne sample t-test (p<0.05).
(§12) Haemolytic activity was assessed using 10mL of human blood collected into potassium -ED T A vacutainers (BD). The blood was washed three times with 30mL of calcium and magnesium -free Dulbecco’s phosphate buffered saline (DPBS) and cells were collected by centrifugation at 2000 x g […]
(§13) for 10 minutes. […]

S. pneumoniae ATCC 49619 = test: microbe, parasite or virus in culture; type: cell-based; details: ATCC 49619, 24 h
Experimental: as §1, §2, §9, §10, §11, §12, §13

L. monocytogenes* = type: cell-based, Listeria monocytogenes; details: broth microdilution (CLSI), 64 to 0.125 μg/mL, 24 h at 35 °C with 5% CO2; animal isolate
Experimental: as §1, with “populations.” for “populations. Pouch swab collection was carried out in accordance with the Save the Tasmanian Devil Program and was approved by the Animal Ethics Committee of the University of Sydney (permit number 681).”
as §6, §4, §5

K. pneumoniae* = type: cell-based, Klebsiella pneumoniae; details: broth microdilution (CLSI), 64 to 0.125 μg/mL, 24 h at 35 °C with 5% CO2; animal isolate
Experimental: as §1, with “t-test.” for “t-test. Pouch microbiome analysis was performed on swabs from the pouch of lactating and non-lactating devils to detect changes in microbe populations. Pouch swab collection was carried out in accordance with the Save the Tasmanian Devil Program and was approved by the Animal Ethics Committee of the University of Sydney (permit number 681).”
as §6, §7, §8

E. faecalis = type: cell-based, Enterococcus faecalis; details: broth microdilution (CLSI), 64 to 0.125 μg/mL, 24 h at 35 °C; human clinical isolate
Experimental: as §1, §2, §9
(§14) DMEM and positive control of dimethylsulfoxide (DMSO) (1%) were also included. Following incubation for a further 24 hours, cell viability was determined using alamar blue (Invitrogen) which was added to each well. The plates were incubated for 24 hours, then the absorption measured at 570nm and 620nm using the Victor 3 multilabel plate reader (PerkinElmer). The assay was performed on two separate occasions. To x i city of cathelicidins was calculated according to Invitrogen recommendations and expressed as percentage cell survival compared to the untreated growth control. A significant difference between cathelicidin treated and control cell survival was tested using a o ne sample t-test (p<0.05).
as §8
(§15) vacutainers (BD). […]

[3] = test system: Vancomycin resistant E. faecalis (VREF); type: cell-based, Enterococcus faecalis; details: broth microdilution (CLSI), 64 to 0.125 μg/mL, 24 h at 35 °C, human clinical isolate
Experimental: as §1, §2, §9, §14, §8, §15

C. neoformans = type: cell-based, Cryptococcus neoformans; details: broth microdilution (CLSI), YNB, 64 to 0.125 μg/mL, 72 hours at 35 °C; human clinical isolate
Experimental: as §1, with “t-test.” for “t-test. Pouch microbiome analysis was performed on swabs from the pouch of lactating and non-lactating devils to detect changes in microbe populations. Pouch swab collection was carried out in accordance with the Save the Tasmanian Devil Program and was approved by the Animal Ethics Committee of the University of Sydney (permit number 681).”
as §6, §7, §8

P. aeruginosa ATCC 27853 = test: microbe, parasite or virus in culture; type: cell-based, Pseudomonas aeruginosa; details: ATCC 27853, 24 h
Experimental: as §1, §2, §3, §4, §5

| Sequence | MIC (E. faecalis ATCC 29212) | MIC (E. coli) | MIC (C. krusei ATCC 6258) | MIC [1] | MIC [2] | MIC (S. pneumoniae ATCC 49619) | MIC (L. monocytogenes*) | MIC (K. pneumoniae*) | MIC (E. faecalis) | MIC [3] | MIC (C. neoformans) | MIC (P. aeruginosa ATCC 27853) |
| --- | --- | --- | --- | --- | --- | --- | --- | --- | --- | --- | --- | --- |
| KRIGLIRLIGKILRGLRRLG [Saha-CATH5] | >64 µg/mL | 32 µg/mL | 64 µg/mL | 32 µg/mL | >64 µg/mL | 64 µg/mL | >64 µg/mL | >64 µg/mL | >64 µg/mL | 32 µg/mL | 32 µg/mL | >64 µg/mL |
| KRMGIFHLFWAGLRKLGNLIKNKIQQGIENFLG [Saha-CATH3] | >64 µg/mL | >64 µg/mL | >64 µg/mL |  | >64 µg/mL | >64 µg/mL | >64 µg/mL | >64 µg/mL | >64 µg/mL | >64 µg/mL | 16 µg/mL | >64 µg/mL |
| KRIRFFERIRDRLRDLGNRIKNRIRDFFS [Saha-CATH6] | >64 µg/mL | >64 µg/mL | 64 µg/mL |  | >64 µg/mL | 64 µg/mL | >64 µg/mL | >64 µg/mL | >64 µg/mL | 64 µg/mL | 64 µg/mL | >64 µg/mL |
